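Exposure lasted 48 hours, with cells grown in 96-well plates and compounds tested at five concentrations. Here, GI50 denotes the concentration required for 50% inhibition of growth. Definition used: TGI = concentration required for complete inhibition of growth.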
What was measured:
Assay in all cases: NCI-60 cell line screen, 48 h
NCI-H23 lung = tested on: NCI-H23 lung
SN12C renal = tested on: SN12C renal
IGROV1 ovarian = tested on: IGROV1 ovarian
A549 NSCLC = tested on: A549 NSCLC
U251 CNS = tested on: U251 CNS
KM12 colon = tested on: KM12 colon
CCRF-CEM leukemia = tested on: CCRF-CEM leukemia
K-562 leukemia = tested on: K-562 leukemia
UACC-257 melanoma = tested on: UACC-257 melanoma
HS 578T breast = tested on: HS 578T breast
MDA-MB-435 = tested on: MDA-MB-435
PC-3 prostate = tested on: PC-3 prostate
EKVX NSCLC = tested on: EKVX NSCLC
LOX IMVI melanoma = tested on: LOX IMVI melanoma
SW-620 colon = tested on: SW-620 colon
NCI/ADR-RES ovarian = tested on: NCI/ADR-RES ovarian
SNB-75 CNS = tested on: SNB-75 CNS
DU-145 prostate = tested on: DU-145 prostate
OVCAR-4 ovarian = tested on: OVCAR-4 ovarian
HT29 colon = tested on: HT29 colon
TK-10 renal = tested on: TK-10 renal
MOLT-4 leukemia = tested on: MOLT-4 leukemia
A498 renal = tested on: A498 renal
M14 melanoma = tested on: M14 melanoma
SR leukemia = tested on: SR leukemia
HL-60(TB) leukemia = tested on: HL-60(TB) leukemia
SK-MEL-2 melanoma = tested on: SK-MEL-2 melanoma
OVCAR-3 ovarian = tested on: OVCAR-3 ovarian

Structure (SMILES): Clc1ccc(CN2COc3c(ccc4cccnc34)C2)cc1Cl
- GI50 (NCI-H23 lung): 2560 nM
- TGI (NCI-H23 lung): 14900 nM
- GI50 (SN12C renal): 2040 nM
- TGI (SN12C renal): 13800 nM
- GI50 (IGROV1 ovarian): 1050 nM
- TGI (IGROV1 ovarian): 3610 nM
- GI50 (A549 NSCLC): 1640 nM
- TGI (A549 NSCLC): 12900 nM
- GI50 (U251 CNS): 966 nM
- TGI (U251 CNS): 13200 nM
- GI50 (KM12 colon): 1200 nM
- TGI (KM12 colon): 4490 nM
- GI50 (CCRF-CEM leukemia): 578 nM
- TGI (CCRF-CEM leukemia): 3690 nM
- GI50 (K-562 leukemia): 895 nM
- TGI (K-562 leukemia): 2680 nM
- GI50 (UACC-257 melanoma): 2530 nM
- TGI (UACC-257 melanoma): 7890 nM
- GI50 (HS 578T breast): 1960 nM
- TGI (HS 578T breast): 10100 nM
- GI50 (MDA-MB-435): 1960 nM
- TGI (MDA-MB-435): 9180 nM
- GI50 (PC-3 prostate): 798 nM
- TGI (PC-3 prostate): 11500 nM
- GI50 (EKVX NSCLC): 1310 nM
- TGI (EKVX NSCLC): 15200 nM
- GI50 (LOX IMVI melanoma): 1010 nM
- TGI (LOX IMVI melanoma): 2700 nM
- GI50 (SW-620 colon): 1280 nM
- TGI (SW-620 colon): 5390 nM
- GI50 (NCI/ADR-RES ovarian): 394 nM
- TGI (NCI/ADR-RES ovarian): 2150 nM
- GI50 (SNB-75 CNS): 2360 nM
- TGI (SNB-75 CNS): 13400 nM
- GI50 (DU-145 prostate): 1770 nM
- TGI (DU-145 prostate): 14800 nM
- GI50 (OVCAR-4 ovarian): 531 nM
- TGI (OVCAR-4 ovarian): 12900 nM
- GI50 (HT29 colon): 4050 nM
- TGI (HT29 colon): 15200 nM
- GI50 (TK-10 renal): 3350 nM
- TGI (TK-10 renal): 17900 nM
- GI50 (MOLT-4 leukemia): 1550 nM
- TGI (MOLT-4 leukemia): 4890 nM
- GI50 (A498 renal): 1720 nM
- TGI (A498 renal): 11800 nM
- GI50 (M14 melanoma): 1260 nM
- TGI (M14 melanoma): 4740 nM
- GI50 (SR leukemia): 354 nM
- TGI (SR leukemia): 1410 nM
- GI50 (HL-60(TB) leukemia): 297 nM
- TGI (HL-60(TB) leukemia): 1300 nM
- GI50 (SK-MEL-2 melanoma): 2150 nM
- TGI (SK-MEL-2 melanoma): 7470 nM
- GI50 (OVCAR-3 ovarian): 468 nM
- TGI (OVCAR-3 ovarian): 12100 nM
